Source: ChEMBL document CHEMBL3352703, “Sulfamates of methyl triterpenoates are effective and competitive inhibitors of carbonic anhydrase II” (Eur J Med Chem, 2014)

Experiments:
[1] = molecular target: Carbonic anhydrase 2 (Bos taurus, UniProt P00921); assay: Inhibition of bovine erythrocyte carbonic anhydrase 2 using 4-nitrophenyl acetate substrate by photometric assay
[2] = Cytotoxicity against mouse NIH/3T3 cells after 96 hrs by SRB assay; type: cell-based; settings: NIH3T3, 96 h

Carbonic anhydrase 2, sequence (P00921 whole entry): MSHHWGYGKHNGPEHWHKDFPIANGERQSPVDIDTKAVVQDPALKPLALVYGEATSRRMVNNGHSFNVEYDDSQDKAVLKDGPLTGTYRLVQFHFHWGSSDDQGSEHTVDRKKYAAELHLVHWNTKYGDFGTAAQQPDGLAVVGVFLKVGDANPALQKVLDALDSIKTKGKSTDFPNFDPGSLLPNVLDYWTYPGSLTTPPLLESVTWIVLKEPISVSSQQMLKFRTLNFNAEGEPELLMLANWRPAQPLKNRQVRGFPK

Row | SMILES | Ki [1] [µM] | IC50 [2] [µM]
1 | COC(=O)[C@@]1(C)CC[C@]2(C)CC[C@]3(C)C(=CC(=O)[C@@H]4[C@@]5(C)CC[C@H](O)C(C)(C)[C@@H]5CC[C@]43C)[C@@H]2C1 | > 10 | –
2 | COC(=O)[C@@]1(C)CC[C@]2(C)CC[C@]3(C)C(=CC[C@@H]4[C@@]5(C)CC[C@H](O)C(C)(C)[C@@H]5CC[C@]43C)[C@@H]2C1 | > 10 | –
3 | COC(=O)[C@]12CCC(C)(C)C[C@H]1C1=CC(=O)[C@@H]3[C@@]4(C)CC[C@H](O)C(C)(C)[C@@H]4CC[C@@]3(C)[C@]1(C)CC2 | > 50 | –
4 | COC(=O)[C@]12CC[C@@H](C(C)=O)[C@@H]1[C@H]1CC[C@@H]3[C@@]4(C)CC[C@H](O)C(C)(C)[C@@H]4CC[C@@]3(C)[C@]1(C)CC2 | > 5 | –
5 | COC(=O)[C@]12CC[C@@H](C)[C@H](C)[C@H]1C1=CC(=O)[C@@H]3[C@@]4(C)CC[C@H](O)C(C)(C)[C@@H]4CC[C@@]3(C)[C@]1(C)CC2 | > 50 | –
6 | COC(=O)[C@]12CCC(C)(C)C[C@H]1C1=CC[C@@H]3[C@@]4(C)CC[C@H](OS(N)(=O)=O)C(C)(C)[C@@H]4CC[C@@]3(C)[C@]1(C)CC2 | 0.308 | 12.8
7 | COC(=O)[C@]12CC[C@@H](C)[C@H](C)[C@H]1C1=CC[C@@H]3[C@@]4(C)CC[C@H](OS(N)(=O)=O)C(C)(C)[C@@H]4CC[C@@]3(C)[C@]1(C)CC2 | 1.11 | 22.8
8 | C=C(C)[C@@H]1CC[C@]2(C(=O)OC)CC[C@]3(C)[C@H](CC[C@@H]4[C@@]5(C)CC[C@H](OS(N)(=O)=O)C(C)(C)[C@@H]5CC[C@]43C)[C@@H]12 | 2.16 | 9.8
9 | COC(=O)[C@@]1(C)CC[C@]2(C)CC[C@]3(C)C(=CC(=O)[C@@H]4[C@@]5(C)CC[C@H](OS(N)(=O)=O)C(C)(C)[C@@H]5CC[C@]43C)[C@@H]2C1 | 1.51 | > 30
10 | COC(=O)[C@@]1(C)CC[C@]2(C)CC[C@]3(C)C(=CC[C@@H]4[C@@]5(C)CC[C@H](OS(N)(=O)=O)C(C)(C)[C@@H]5CC[C@]43C)[C@@H]2C1 | > 4 | > 30
11 | COC(=O)[C@]12CC[C@@H](C(C)=O)[C@@H]1[C@H]1CC[C@@H]3[C@@]4(C)CC[C@H](OS(N)(=O)=O)C(C)(C)[C@@H]4CC[C@@]3(C)[C@]1(C)CC2 | 1.74 | > 30
12 | COC(=O)[C@]12CCC(C)(C)C[C@H]1C1=CC[C@@H]3[C@@]4(C)C[C@@H](OS(N)(=O)=O)[C@H](O)C(C)(C)[C@@H]4CC[C@@]3(C)[C@]1(C)CC2 | > 20 | 12.6
13 | COC(=O)[C@]12CCC(C)(C)C[C@H]1C1=CC[C@@H]3[C@@]4(C)C[C@@H](O)[C@H](OS(N)(=O)=O)C(C)(C)[C@@H]4CC[C@@]3(C)[C@]1(C)CC2 | 1.41 | 2.2
14 | COC(=O)[C@]12CCC(C)(C)C[C@H]1C1=CC(=O)[C@@H]3[C@@]4(C)CC[C@H](OS(N)(=O)=O)C(C)(C)[C@@H]4CC[C@@]3(C)[C@]1(C)CC2 | 1.49 | 25.9
15 | COC(=O)[C@]12CC[C@@H](C)[C@H](C)[C@H]1C1=CC(=O)[C@@H]3[C@@]4(C)CC[C@H](OS(N)(=O)=O)C(C)(C)[C@@H]4CC[C@@]3(C)[C@]1(C)CC2 | > 15 | 25.9
16 | COC(=O)[C@]12CCC(C)(C)C[C@H]1C1=CC[C@@H]3[C@@]4(C)C[C@@H](O)[C@H](O)C(C)(C)[C@@H]4CC[C@@]3(C)[C@]1(C)CC2 [MASLINIC ACID METHYL ESTER] | > 25 | –
17 | C=C(C)[C@@H]1CC[C@]2(C(=O)OC)CC[C@]3(C)[C@H](CC[C@@H]4[C@@]5(C)CC[C@H](O)C(C)(C)[C@@H]5CC[C@]43C)[C@@H]12 [METHYL BETULINATE] | > 50 | –
18 | COC(=O)[C@]12CCC(C)(C)C[C@H]1C1=CC[C@@H]3[C@@]4(C)CC[C@H](O)C(C)(C)[C@@H]4CC[C@@]3(C)[C@]1(C)CC2 [METHYL OLEANOLATE] | > 10 | –
19 | COC(=O)[C@]12CC[C@@H](C)[C@H](C)[C@H]1C1=CC[C@@H]3[C@@]4(C)CC[C@H](O)C(C)(C)[C@@H]4CC[C@@]3(C)[C@]1(C)CC2 [METHYL URSOLATE] | > 10 | –
